Reference: patent US8716326B2, “Isoindolinone derivatives, preparation method thereof and a pharmaceutical composition comprising same” (Korea Research Institute of Chemical Technology, priority 2009, dated 2014)

System: Runx2
Assay: Runx2 activity, 6xOSE2-Luc luciferase reporter in transfected C2C12 cells
Format: cell-based, Mouse
Conditions: Mus musculus, 24 hrs, read-out: luciferase activity relative to control set as 1
In short: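 Compound exposure of 24 h at 2.5, 5.0, 10 and 20 μM, in 5% FBS DMEM, was applied to transfected C2C12 cells with an OSE2 hexamer-driven luciferase construct reporting Runx2 activity. Read-out: dual-luciferase signal in cell lysates, normalised to equal-volume DMSO control (=1).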

Structure (SMILES)	fold induction at 2.5 µM	fold induction at 5 µM	fold induction at 10 µM	fold induction at 20 µM
COc1cc(C(=O)NCc2ccc(C(=O)Nc3ccccc3N)cc2)c(C)c(-c2cncnc2)c1OC [Example 75, N-(2-aminophenyl)-4-((2-methyl-4,5-dimethoxy-3-(5-pyrimidinyl)-benzamido)methyl)benzamide]	2.5	4.7	12.4	27.8
COc1cc(C(=O)NCc2ccc(C(=O)Nc3ccccc3N)cc2)c(C)c(-c2cccnc2)c1OC [Example 76, N-(2-aminophenyl)-4-((2-methyl-3-(3-pyridinyl)-4,5-dimethoxy-benzamido)methyl)benzamide]	4.5	8.5	20.8	32.9
COc1cc(C(=O)NCc2ccc(C(=O)Nc3ccccc3N)cc2)c(C)c(-c2cccc(N)c2)c1OC [Example 77, N-(2-aminophenyl)-4-((3-(3-aminophenyl)-4,5-dimethoxy-2-methyl-benzamido)methyl)benzamide]	4.9	11	24.5	33.5
COc1cc(C(=O)NCc2ccc(C(=O)Nc3ccccc3N)cc2)c(C)c(-c2ccc(C(F)(F)F)cc2)c1OC [Example 78, N-(2-aminophenyl)-4-((2-methyl-3-(4-trifluoromethylphenyl)-4,5-dimethoxy-benzamido)methyl)benzamide]	6.4	12.8	19.1	21.1
COc1cc(C(=O)NCc2ccc(C(=O)Nc3ccccc3N)cc2)c(C)c(-c2cc(F)cc(F)c2)c1OC [Example 79, N-(2-aminophenyl)-4-((2-methyl-3-(3,5-difluorophenyl)-4,5-dimethoxy-benzamido)methyl)benzamide]	13.5	24.4	31.3	31.7
Cc1c(Br)cccc1C(=O)NCCCCCC(=O)Nc1ccccc1N [Example 80, N-(5-(2-aminophenylcarbamoyl)pentyl)-3-bromo-2-methylbenzamide]	0.9	1.8	2.7	5.4
Cc1c(C(=O)NCCCCCC(=O)Nc2ccccc2N)cccc1-c1ccccc1 [Example 81, N-(5-(2-aminophenylcarbamoyl)pentyl)-2-methyl-3-phenyl-benzamide]	1.6	3.4	7.5	10.7
COc1ccc(-c2cccc(C(=O)NCCCCCC(=O)Nc3ccccc3N)c2C)c(OC)c1 [Example 82, N-(5-(2-aminophenylcarbamoyl)pentyl)-2-methyl-3-(2,4-dimethoxyphenyl)-benzamide]	1.5	2.5	6	10.9
Cc1c(C(=O)NCCCCCC(=O)Nc2ccccc2N)cccc1-c1cccnc1 [Example 83, N-(5-(2-aminophenylcarbamoyl)pentyl)-2-methyl-3-(3-pyridinyl)-benzamide]	1.3	2.1	5.6	15.7
Cc1c(C(=O)NCCCCCC(=O)Nc2ccccc2N)cccc1-c1ccncc1 [Example 84, N-(5-(2-aminophenylcarbamoyl)pentyl)-2-methyl-3-(4-pyridinyl)-benzamide]	1.9	3.3	7.8	17.3
Cc1cc(C(=O)NCCCCCC(=O)Nc2ccccc2N)ccc1Br [Example 85, N-(5-(2-aminophenylcarbamoyl)pentyl)-4-bromo-3-methylbenzamide]	2.15	6.7	13.9	14.3
Cc1cc(C(=O)NCCCCCC(=O)Nc2ccccc2N)ccc1-c1ccccc1 [Example 86, N-(5-(2-aminophenylcarbamoyl)pentyl)-3-methyl-4-phenyl-benzamide]	1.2	1.9	3.4	3.7
COc1ccc(-c2ccc(C(=O)NCCCCCC(=O)Nc3ccccc3N)cc2C)c(OC)c1 [Example 87, N-(5-(2-aminophenylcarbamoyl)pentyl)-3-methyl-4-(2,4-dimethoxyphenyl)-benzamide]	1.7	2.6	5.6	8.5
Cc1cc(C(=O)NCCCCCC(=O)Nc2ccccc2N)ccc1-c1cccnc1 [Example 88, N-(5-(2-aminophenylcarbamoyl)pentyl)-3-methyl-4-(3-pyridinyl)-benzamide]	6	16.8	28.1	41.2
Cc1cc(C(=O)NCCCCCC(=O)Nc2ccccc2N)ccc1-c1ccncc1 [Example 89, N-(5-(2-aminophenylcarbamoyl)pentyl)-3-methyl-4-(4-pyridinyl)-benzamide]	9.6	17.9	23.7	25.3
Cc1cc(C(=O)NCCCCCC(=O)Nc2ccccc2N)ccc1-c1cncnc1 [Example 90, N-(5-(2-aminophenylcarbamoyl)pentyl)-3-methyl-4-(5-pyrimidinyl)-benzamide]	1.7	3.7	9.5	22.1
Cc1cc(C)cc(-c2ccc(C(=O)NCCCCCC(=O)Nc3ccccc3N)cc2C)c1 [Example 91, N-(5-(2-aminophenylcarbamoyl)pentyl)-3-methyl-4-(3,5-dimethylphenyl)-benzamide]	1.1	1.5	2.9	3.9
Cc1c(C(=O)NCCCCCC(=O)NO)cccc1-c1ccccc1 [Example 92, N-(5-(hydroxycarbamoyl)pentyl)-2-methyl-3-phenylbenzamide]	4.1	8.8	12.4	11.5
COc1ccc(-c2cccc(C(=O)NCCCCCC(=O)NO)c2C)c(OC)c1 [Example 93, N-(5-(hydroxycarbamoyl)pentyl)-2-methyl-3-(2,4-dimethoxyphenyl)-benzamide]	1.3	1.9	4.8	11.2
